The source of these data is US9975882B2, “Heteroaromatic compounds as BTK inhibitors” (Boehringer Ingelheim International GmbH, priority 2015, dated 2018).

As a reminder, the IC50 is the point on the concentration scale where inhibition reaches its midpoint. Usually Cmax stands for the peak of the concentration-time curve.

The target in data set [1] is human recombinant Txk (full length, GST-tagged) (Homo sapiens (Human), UniProt P42681). Kind of data set: TXK Z'-LYTE assay.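 Note: FRET read-out of kinase phosphorylation of a synthetic peptide labelled with Coumarin and Fluorescein, scored by protease sensitivity of unphosphorylated peptide, incubated at 22 °C.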 Conditions: read-out: TXK IC50, 100 μM ATP.
The subject of data set [2] is BTK (IL-6 production in primary CD19+ B cells). Put plainly: Inhibition of IL-6 production in B cells co-stimulated with ODN 2006 and anti-hIgD. Conditions: B-cell, anti-human IgD + ODN 2006. Type of data set: cell-based. The protocol:
Inhibition of IL-6 Production in B Cells Co-Stimulated with ODN 2006 and anti-hIgD
Primary CD19+ B cells (AllCells #PB010F) are thawed and plated in RPMI containing 10% HI FBS in a 384-well tissue cultured plate at 20,000 cells/well. The cells are treated with test compound (0.5% DMSO final concentration) and incubated for 1 hour at 37° C., 5% CO2. Cells are then stimulated with 5 ug/mL Goat F(ab′)2 anti-human IgD (SouthernBiotech #2032) and 2 uM ODN 2006 (InvivoGen #tlrl-2006) and incubated for 18-24 hours at 37° C., 5% CO2. IL-6 in the supernatant is measured using Meso Scale Discovery kit #K211AKB-6.
(§1) Representative compounds of the present invention are tested and show BTK inhibition (Table I). […] Additionally, compounds of the present invention, as represented by examples in Table II, are selective for BTK inhibition over other related kinases. […] In this table the BTK activity is measured by IL-6 production in primary CD19^+ B cells, and the EGFR activity is measured by EGFR phosphorylation in A431 cells.

Data set [3] deals with EGFR (EGFR phosphorylation in A431 cells) (Homo sapiens (Human), UniProt P00533). Kind of data set: Inhibition of EGFR autophosphorylation in A431 human epithelial cells stimulated with EGF. Type of data set: cell-based. As to conditions: EGF 60 ng/mL, read-out: A431 p-EGFR IC50. The method, then: Inhibition of EGFR Autophosphorylation in A431 Human Epithelial Cells Stimulated with Epithelial Growth Factor
A431 cells (ATCC #CRL-1555 FZ) are thawed and plated in DMEM containing 10% FBS in a 384-well tissue culture treated plate at 15,000 cells/well. After incubating for 24 hours at 37° C., 5% CO2, the cells are treated with test compound (1% DMSO final concentration) and incubated for 16 hours at 37° C., 5% CO2. EGF (Millipore, 01-107) is added at a final concentration of 60 ng/mL and incubated for 10 minutes. The medium is removed, the cells are lysed, and phospho EGFR is measured (Meso Scale Diagnostics, N31CB-1).
as §1

The target of data set [4] is human full length His-tagged BTK (Homo sapiens (Human), UniProt Q06187). Put plainly: BTK Lanthscreen Eu Kinase Binding assay. As to conditions: 2 nM BTK. The method, then:
BTK Lanthscreen® Eu Kinase Binding Assay:
A Lanthscreen® Eu Kinase Binding assay (Life Technologies) is performed to quantitate the ability of test compounds to bind to BTK. The assay is based on the binding and displacement of Alexa Fluor647-labeled Kinase Tracer #236 to the ATP-binding site of human full length His-tagged BTK (Life Technologies cat #PV3587) with TR-FRET detection using a europium-labeled anti-His antibody. The assay is assembled in 384-well low volume NBS black plates (Corning) where 2 nM BTK and test compound in DMSO at varying concentrations are pre-incubated for 30 min at 28° C. in assay buffer consisting of 50 mM HEPES, pH 7.4, 10 mM MgCl2, 1 mM EGTA. 100 μM Na3VO4 and 0.01% Brij 35. Then, 2 nM of Eu-anti His antibody and 30 nM Kinase Tracer are added and incubated for 60 min at 28° C. Following incubation, TR-FRET signal is read on an Envision plate reader (Excitation: 340 nm; Emissions: 615 and 665 nm). The 665:615 nm emission ratio is calculated and converted to POC compared to control and blank wells.

The nature of data set [5]: Plasma compound exposure in rats (tail bleed, day 6). Type of data set: in vivo. As to conditions: plasma, rat. The method, then:
(§2) All animals (telemetry-instrumented) are single housed in metabolic cages. Rats are acclimated to the metabolic cage for at least 3 days and then dosed with vehicle for up to 4 days. Blood pressure, heart rate, and bodyweight are collected during the baseline period and animals are randomized into 3 groups based on these parameters (n=8-9/group). Treatment groups are: vehicle and test compound (10 mg/kg po and 30 mg/kg po qd); animals are treated with compound for 5 days. […] Mean arterial pressure (MAP) and heart rate (HR) are collected continuously throughout the study. Statistical analyses is performed using GraphPad Prism based on the average 24-hr mean value during five days of compound administration (one-way ANOVA with Dunnett's post-test vs. Vehicle; p<0.05 is considered statistically significant).

The target of data set [6] is human recombinant full length TEC (His-tagged) (Homo sapiens (Human), UniProt P42680). Put plainly: TEC Lanthscreen Eu Kinase Binding assay. As to conditions: 1 nM TEC.
Data set [7] concerns mean arterial pressure (MAP). Conditions: rat, in vivo, po. The protocol:
In-Vivo Assay—Comparison Between the Compounds of the Present Invention and Comparative Compounds A, B and C
In a side-by-side in-vivo study, select compounds of the present invention and comparative compounds A-C are evaluated in telemetry-instrumented conscious rats to determine their effects on mean arterial pressure (MAP) at doses at or above therapeutically relevant concentrations.
as §2

Data set [8] addresses human recombinant BTK (full length, His-tagged) (Homo sapiens (Human), UniProt Q06187). Put plainly: BTK Z'-LYTE assay.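 Note: FRET readout of kinase phosphorylating a coumarin and fluorescein labelled synthetic peptide, detected via protease sensitivity of unphosphorylated versus phosphorylated substrate, incubated at 22 °C in 384-well plates.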 Type of data set: biochemical. As to conditions: 25 μM ATP.
Description: Z′-LYTE™ Assay (Life Technologies):
The Z′-Lyte assay employs a FRET-based, coupled-enzyme format and is based on the differential sensitivity of phosphorylated and non-phosphorylated peptides to proteolytic Cleavage. The activity of human recombinant BTK (full length, His-tagged), BMX (full length, His-tagged) or Txk (full length, GST-tagged) is estimated by measuring the phosphorylation of a synthetic FRET peptide substrate labeled with Coumarin and Fluorescein. […] Incubations are carried out at 22° C. in black polypropylene 384-well plates (Corning).
Representative compounds of the present invention are assessed for inhibition of BTK, BMX, and TXK measuring phosphorylation of a substrate (Z′-LYTE™ assay, Life Technologies) and TEC measuring displacement of a “tracer” (Lanthscreen® Eu Kinase Binding assay, Life Technologies).

SMILES strings stand for the structures. Where two headings read alike, the source gives them in different places.

Chain of EGFR (EGFR phosphorylation in A431 cells) (P00533 25-1210): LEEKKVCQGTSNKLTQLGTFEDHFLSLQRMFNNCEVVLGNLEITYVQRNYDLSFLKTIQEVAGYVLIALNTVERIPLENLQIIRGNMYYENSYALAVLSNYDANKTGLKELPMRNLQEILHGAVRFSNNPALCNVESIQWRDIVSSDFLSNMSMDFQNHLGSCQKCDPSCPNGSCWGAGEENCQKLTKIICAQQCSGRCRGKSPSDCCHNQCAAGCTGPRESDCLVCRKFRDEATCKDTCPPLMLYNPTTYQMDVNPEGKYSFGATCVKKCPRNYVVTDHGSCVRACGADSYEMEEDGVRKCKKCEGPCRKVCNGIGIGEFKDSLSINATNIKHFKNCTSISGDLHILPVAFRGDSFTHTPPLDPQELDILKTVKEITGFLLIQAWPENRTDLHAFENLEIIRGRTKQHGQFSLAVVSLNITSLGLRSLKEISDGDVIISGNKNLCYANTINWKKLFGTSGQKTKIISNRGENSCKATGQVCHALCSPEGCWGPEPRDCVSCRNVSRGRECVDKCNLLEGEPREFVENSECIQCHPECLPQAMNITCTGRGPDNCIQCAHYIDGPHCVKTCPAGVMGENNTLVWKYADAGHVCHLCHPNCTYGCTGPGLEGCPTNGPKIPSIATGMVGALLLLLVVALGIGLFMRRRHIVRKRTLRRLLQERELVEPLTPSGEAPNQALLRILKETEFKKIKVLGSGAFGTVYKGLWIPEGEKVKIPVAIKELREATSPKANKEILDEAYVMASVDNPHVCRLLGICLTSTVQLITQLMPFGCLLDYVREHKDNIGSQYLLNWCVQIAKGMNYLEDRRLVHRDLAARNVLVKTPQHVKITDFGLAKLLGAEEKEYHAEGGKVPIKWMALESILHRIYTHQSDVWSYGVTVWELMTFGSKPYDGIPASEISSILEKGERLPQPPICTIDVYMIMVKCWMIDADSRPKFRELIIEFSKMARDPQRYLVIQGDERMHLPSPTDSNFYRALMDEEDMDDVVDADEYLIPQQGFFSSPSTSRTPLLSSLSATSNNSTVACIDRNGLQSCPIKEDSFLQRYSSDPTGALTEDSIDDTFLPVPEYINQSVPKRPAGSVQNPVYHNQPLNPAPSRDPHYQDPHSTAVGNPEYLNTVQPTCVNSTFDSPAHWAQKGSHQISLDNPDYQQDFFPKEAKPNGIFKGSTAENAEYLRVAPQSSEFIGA
Chain of human recombinant Txk (full length, GST-tagged) (P42681 whole entry): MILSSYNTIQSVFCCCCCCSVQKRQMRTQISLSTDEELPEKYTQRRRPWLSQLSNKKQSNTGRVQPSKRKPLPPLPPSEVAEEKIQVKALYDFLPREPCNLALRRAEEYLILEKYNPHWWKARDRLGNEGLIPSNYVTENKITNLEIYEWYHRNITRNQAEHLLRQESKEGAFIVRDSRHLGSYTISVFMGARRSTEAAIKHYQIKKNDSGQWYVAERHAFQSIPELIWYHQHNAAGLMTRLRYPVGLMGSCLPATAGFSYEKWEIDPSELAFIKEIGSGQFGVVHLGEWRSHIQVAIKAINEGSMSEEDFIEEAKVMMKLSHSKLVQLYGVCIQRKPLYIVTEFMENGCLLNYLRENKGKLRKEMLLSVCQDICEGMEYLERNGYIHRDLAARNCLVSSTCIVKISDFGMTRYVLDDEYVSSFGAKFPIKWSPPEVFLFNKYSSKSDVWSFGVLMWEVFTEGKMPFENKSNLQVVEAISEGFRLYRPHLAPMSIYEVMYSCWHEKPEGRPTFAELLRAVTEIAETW
Chain of human recombinant full length TEC (His-tagged) (P42680 whole entry): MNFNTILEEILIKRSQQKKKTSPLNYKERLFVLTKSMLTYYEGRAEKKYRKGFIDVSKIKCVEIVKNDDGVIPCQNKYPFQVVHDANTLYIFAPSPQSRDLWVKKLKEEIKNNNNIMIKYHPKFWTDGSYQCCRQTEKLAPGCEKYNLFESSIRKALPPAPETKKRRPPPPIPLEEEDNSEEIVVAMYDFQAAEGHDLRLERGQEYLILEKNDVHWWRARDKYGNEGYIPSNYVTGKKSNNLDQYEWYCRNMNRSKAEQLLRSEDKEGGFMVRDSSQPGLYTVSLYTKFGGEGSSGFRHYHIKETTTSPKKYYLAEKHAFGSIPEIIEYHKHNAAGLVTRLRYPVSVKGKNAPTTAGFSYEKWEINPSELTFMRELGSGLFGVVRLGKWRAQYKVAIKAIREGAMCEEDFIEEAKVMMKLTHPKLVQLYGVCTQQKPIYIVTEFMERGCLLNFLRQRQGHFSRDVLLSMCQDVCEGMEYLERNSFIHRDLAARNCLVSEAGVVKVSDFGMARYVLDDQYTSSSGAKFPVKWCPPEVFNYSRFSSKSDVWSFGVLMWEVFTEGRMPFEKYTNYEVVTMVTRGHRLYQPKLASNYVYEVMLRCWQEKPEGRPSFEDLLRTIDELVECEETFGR
Chain of human full length His-tagged BTK (Q06187 whole entry): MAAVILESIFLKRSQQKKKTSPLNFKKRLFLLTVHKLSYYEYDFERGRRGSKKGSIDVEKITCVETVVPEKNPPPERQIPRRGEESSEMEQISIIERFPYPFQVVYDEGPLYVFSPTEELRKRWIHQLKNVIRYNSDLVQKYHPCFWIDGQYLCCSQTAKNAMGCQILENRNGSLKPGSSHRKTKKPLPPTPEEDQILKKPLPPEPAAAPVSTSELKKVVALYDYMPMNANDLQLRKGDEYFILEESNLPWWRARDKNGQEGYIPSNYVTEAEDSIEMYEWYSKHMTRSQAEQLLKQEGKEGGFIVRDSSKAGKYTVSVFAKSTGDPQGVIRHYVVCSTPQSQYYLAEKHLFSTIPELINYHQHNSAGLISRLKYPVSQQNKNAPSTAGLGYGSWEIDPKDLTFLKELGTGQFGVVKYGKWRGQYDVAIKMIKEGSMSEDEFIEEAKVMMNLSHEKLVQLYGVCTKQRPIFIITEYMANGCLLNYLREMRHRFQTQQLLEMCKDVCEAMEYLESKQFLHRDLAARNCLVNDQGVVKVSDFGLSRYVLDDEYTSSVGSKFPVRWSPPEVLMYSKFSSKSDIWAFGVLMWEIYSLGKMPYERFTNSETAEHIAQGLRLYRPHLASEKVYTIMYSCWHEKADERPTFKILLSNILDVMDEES
Chain of human recombinant BTK (full length, His-tagged) (Q06187 whole entry): as above

For `CC#CC(=O)N1CC[C@]2(C1)C[C@H](n1nc(-c3cnn(Cc4ccccc4C(F)(F)F)c3)c(C(N)=O)c1N)C2` [Example 12], the concentration for half-maximal inhibition (IC50) in data set [1] is 130 nM; in data set [2], 0.5 nM; in data set [3], greater than 10000 nM; in data set [4] it was 0.5 nM; in data set [6], 92 nM; in data set [8], 1.7 nM. Also, the Cmax in data set [5] (10 mg/kg po qd) is 111 ± 37 nM; in data set [5] (30 mg/kg po qd) it was 344 ± 106 nM. Also, the “5-Day 24-h MAP Change versus Control” value in data set [7] (10 mg/kg) and in data set [7] (30 mg/kg) was “No statistically significant” throughout.
In the case of `CC#CC(=O)N1CC[C@]2(C1)C[C@H](n1nc(-c3cnn(Cc4cccc(C(F)(F)F)c4)c3)c(C(N)=O)c1N)C2` [Example 22], the IC50 in data set [1] is 46 nM; in data set [2] it was 0.8 nM; in data set [3], greater than 10000 nM; in data set [4], 0.3 nM; in data set [6], 21 nM; in data set [8] it was 0.7 nM. Also, the Cmax in data set [5] (10 mg/kg po qd) is 170 ± 29 nM; in data set [5] (30 mg/kg po qd), 720 ± 262 nM. For the same compound, the “5-Day 24-h MAP Change versus Control” value in data set [7] (10 mg/kg) and in data set [7] (30 mg/kg) was “No statistically significant” throughout.
